From publication PMC8211987, “Primaquine Diphosphate, a Known Antimalarial Drug, Blocks Vascular Leakage Acting Through Junction Stabilization” (Frontiers in Pharmacology, 2021) come the findings set out here.

The assay addresses T1, ubiquitin specific protease 1 (USP1) (Homo sapiens, UniProt O94782).
T1 construct: recombinant USP1/UAF1 complex; with UAF1
Description: Ub-AMC deubiquitinase activity assay with purified recombinant USP1/UAF1. In kind it is biochemical.

T1 sequence (O94782 whole entry): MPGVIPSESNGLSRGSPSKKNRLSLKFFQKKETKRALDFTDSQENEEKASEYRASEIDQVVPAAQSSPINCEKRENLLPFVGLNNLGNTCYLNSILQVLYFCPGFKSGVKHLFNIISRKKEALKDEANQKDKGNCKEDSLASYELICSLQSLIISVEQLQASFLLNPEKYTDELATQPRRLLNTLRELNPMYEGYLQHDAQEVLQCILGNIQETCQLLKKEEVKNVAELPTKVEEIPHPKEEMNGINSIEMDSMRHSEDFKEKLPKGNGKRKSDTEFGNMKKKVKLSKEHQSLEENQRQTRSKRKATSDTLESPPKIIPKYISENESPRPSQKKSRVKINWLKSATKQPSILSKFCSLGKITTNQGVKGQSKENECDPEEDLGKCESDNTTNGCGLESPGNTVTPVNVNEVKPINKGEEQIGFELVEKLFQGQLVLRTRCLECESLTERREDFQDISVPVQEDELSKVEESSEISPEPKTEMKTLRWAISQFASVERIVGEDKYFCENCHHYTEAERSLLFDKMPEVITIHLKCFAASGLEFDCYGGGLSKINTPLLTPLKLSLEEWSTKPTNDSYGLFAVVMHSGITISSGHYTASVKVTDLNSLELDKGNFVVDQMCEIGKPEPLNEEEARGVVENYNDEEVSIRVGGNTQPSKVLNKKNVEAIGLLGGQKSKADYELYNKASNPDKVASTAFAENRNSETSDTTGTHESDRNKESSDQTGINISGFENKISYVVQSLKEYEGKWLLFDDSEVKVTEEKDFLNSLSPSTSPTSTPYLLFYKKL
T1 sequence (Q8TAF3 whole entry partner): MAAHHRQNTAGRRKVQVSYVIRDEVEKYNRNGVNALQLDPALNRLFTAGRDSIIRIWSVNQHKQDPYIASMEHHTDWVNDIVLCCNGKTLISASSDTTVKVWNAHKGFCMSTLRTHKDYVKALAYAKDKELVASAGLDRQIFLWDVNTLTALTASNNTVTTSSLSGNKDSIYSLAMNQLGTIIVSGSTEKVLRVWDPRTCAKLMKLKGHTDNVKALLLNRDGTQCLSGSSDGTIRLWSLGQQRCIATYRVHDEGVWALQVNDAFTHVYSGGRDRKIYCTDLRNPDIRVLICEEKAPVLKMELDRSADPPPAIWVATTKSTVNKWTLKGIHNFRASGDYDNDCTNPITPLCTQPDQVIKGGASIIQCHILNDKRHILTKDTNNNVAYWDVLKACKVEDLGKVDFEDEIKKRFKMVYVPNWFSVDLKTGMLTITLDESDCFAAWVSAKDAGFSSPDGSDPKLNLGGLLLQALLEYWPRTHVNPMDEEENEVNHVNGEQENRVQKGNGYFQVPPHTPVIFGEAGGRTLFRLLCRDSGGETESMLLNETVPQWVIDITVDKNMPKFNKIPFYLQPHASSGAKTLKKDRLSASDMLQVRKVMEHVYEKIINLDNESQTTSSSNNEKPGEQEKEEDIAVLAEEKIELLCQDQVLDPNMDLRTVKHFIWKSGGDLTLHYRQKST

The term IC50 denotes the point on the concentration scale where inhibition reaches its midpoint. As to `COc1cc(NC(C)CCCN)c2ncccc2c1` (stereo not shown) [PD, Primaquine diphosphate], the IC50 amounted to 25.4 µM.
